Read-outs that look alike come from different tables or passages of the source.
How the values were obtained:
[1] = system: d-U937 cells; assay: Cell viability: MTT assay; assay type: cell-based, human; conditions: 1 μg/mL
Outline: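 MTT reduction (1 h, DMSO solubilisation, A550) measured after compound treatment at 1 or 10 μg/mL of differentiated U937 cells for 4 h (5% FCS RPMI1640) or 24 h (10% FCS). Percentage viability loss computed relative to 0.5% DMSO vehicle, with increases tabulated as negative values.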

[2] = system: IL-8 release, d-U937 cells; assay: LPS-induced IL-8 release in d-U937 cells; assay type: cell-based; conditions: Homo sapiens, dU937
Outline: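 IL-8 release after a 4 hr challenge with LPS (0.1 μg/mL, E. coli 0111:B4) following a 2 hr compound pretreatment. Cells were human U937 monocytes differentiated to macrophage-type with PMA 100 ng/mL for 48–72 hr. Relative 50% effective concentration derived from concentration–response data.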

[3] = target: p38 MAPKα isoform (MAPK14) (Homo sapiens, UniProt Q16539); assay: p38 MAPKα enzyme inhibition (FRET, Z-LYTE), Method 1; assay type: biochemical; conditions: Table 4a1
Description: The enzyme inhibitory activities of compounds disclosed herein are determined by FRET using synthetic peptides labelled with both donor and acceptor fluorophores (Z-LYTE, Invitrogen Ltd., Paisley, UK).
The following two assay variants are used for determination of p38 MAPKα inhibition.
The inhibitory activities of test compounds against the p38 MAPKα isoform (MAPK14: Invitrogen), are evaluated indirectly by determining the level of activation/phosphorylation of the down-stream molecule, MAPKAP-K2. The p38 MAPKα protein (80 ng/mL, 2.5 μL) is mixed with the test compound (2.5 μL of either 4 μg/mL, 0.4 μg/mL, 0.04 μg/mL or 0.004 μg/mL) for 2 hr at RT. […] The mixture is incubated for 1 hr at RT. Development reagent (protease, 5 μL) is added for 1 hr prior to detection in a fluorescence microplate reader (Varioskan® Flash, ThermoFisher Scientific).
In all cases, the site-specific protease cleaves non-phosphorylated peptide only and eliminates the FRET signal. Phosphorylation levels of each reaction are calculated using the ratio of coumarin emission (donor) over fluorescein emission (acceptor), for which high ratios indicate high phosphorylation and low ratios indicate low phosphorylation levels.

[4] = target: T1, GSK3α (Homo sapiens, UniProt P49840); assay: GSK 3α enzyme inhibition (FRET), Method 1; assay type: biochemical; conditions: Table 4a1
Outline: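 Z-LYTE FRET format. Enzyme (500 ng/mL stock) + compound (stocks 4–0.004 μg/mL), 2 hr RT; add peptide (8 μM stock) + ATP (40 μM stock), 1 hr; protease 1 hr; read donor/acceptor emission ratio.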

[5] = target: Syk (Homo sapiens, UniProt P43405); assay: Syk enzyme inhibition (FRET); assay type: biochemical
Outline: (§1)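 Kinase activity is measured on a dual-labelled synthetic peptide by FRET. ATP is supplied as an 800 μM solution for c-Src and a 60 μM solution for Syk. Compound is tested at four added concentrations, 4 to 0.004 μg/mL.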

[6] = system: ICAM-1 expression, BEAS2B cells; assay: Poly I:C-induced ICAM-1 expression in BEAS2B cells; assay type: cell-based; conditions: Homo sapiens, BEAS-2B; read-out: Poly IC induced ICAM1 in BEAS2B, IC50
Outline: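 Cell-based ELISA for surface ICAM-1 in human BEAS2B cells 18 h after transfection with the RNA-virus mimic poly I:C (1 μg/mL, with Oligofectamine), compounds added 2 h beforehand. OD450–655 divided by Crystal Violet OD595 per well; percent inhibition relative to vehicle.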

[7] = system: TNFα release, d-U937 cells; assay: LPS-induced TNFα release in d-U937 cells; assay type: cell-based; conditions: Homo sapiens, dU937; for EC50: relative to 10 μg/mL BIRB796, Table 4c1, read-out: LPS Induced Release of Cytokine in d-U937 Cells, TNFα REC50; for IC50: Table 4c2, different laboratory, read-out: IC50 Values for Inhibition of Cytokine Release, dU937 cells, TNFα
Outline: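 Sandwich ELISA quantifies cytokine in supernatants after 4 hr LPS challenge (0.1 μg/mL) of PMA-differentiated (100 ng/mL, 48–72 hr) U937 macrophages given compound 2 hr beforehand. REC50 derived from concentration-response curve, inhibition calculated relative to vehicle.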

[8] = target: cSrc (Homo sapiens, UniProt P12931); assay: c-Src enzyme inhibition (FRET); assay type: biochemical
Outline: as §1

[9] = system: IL-2 release, PBMCs; assay: IL-2 release in CD3/CD28 stimulated PBMC cells; assay type: cell-based; conditions: Homo sapiens, read-out: IC50 Values for Inhibition of Cytokine Release, PBMCs, IL-2
Description: (§2) (c) IL-2 and IFN Gamma Release in CD3/CD28 Stimulated PBMC Cells
(§3) PBMCs from healthy subjects are separated from whole blood using a density gradient (Lymphoprep, Axis-Shield Healthcare). Cells are added to a 96 well plate pre-coated with a mixture of […] monoclonal antibodies (0.3 ug/ml eBioscience and 3 ug/ml BD Pharmingen respectively). Compound at the desired concentration is then added to the wells and the plate left for 3 days under normal tissue culture conditions. Supernatants are harvested and IL-2 and IFN gamma release determined by Sandwich ELISA (Duo-set, R&D System). The IC50 is determined from the dose response curve.

[10] = target: T1, GSK3α; assay: GSK 3α enzyme inhibition (FRET), Method 2; assay type: biochemical; conditions: Table 4a2, different laboratory
[11] = system: IFN gamma release, PBMCs; assay: IFN gamma release in CD3/CD28 stimulated PBMC cells; assay type: cell-based; conditions: Homo sapiens, read-out: IC50 Values for Inhibition of Cytokine Release, PBMCs, IFNγ
Description: as §2, §3

[12] = target: T2, human ether a go-go (hERG) channel (Homo sapiens, UniProt Q12809); assay: hERG inhibition (IonWorks patch clamp electrophysiology); assay type: cell-based; conditions: maximum final assay concentration 3 μM
T2 construct: a Chinese Hamster Lung cell line stably expressing the full length hERG channel
Description: Eight-point concentration curves were generated using serial 3-fold dilutions from the maximum final assay concentration (3 μM). Electrophysiological recordings were made from a Chinese Hamster Lung cell line stably expressing the full length hERG channel. Single cell ionic currents were measured in the perforated patch clamp configuration (100 μg/mL) amphotericin) at room temperature (21-23° C.) using an IonWorks Quattro instrument. The internal solution contained (mM): 140 KCl, 1 MgCl2, 1 EGTA, 20 HEPES and was buffered to pH 7.3. The external solution contained (mM):138 NaCl, 2.7 KCl, 0.9 CaCl2, 0.5 MgCl2, 8 Na2HPO4, 1.5 KH2PO4, also buffered to pH 7.3. Cells were clamped at a holding potential of −70 mV for 30 s and then stepped to +40 mV for 1 s. This was followed by a hyperpolarising step of 1s to −30 mV to evoke the hERG tail current. This sequence was repeated 5 times at a frequency of 0.25 Hz. Currents were measured from the tail step at the 5th pulse, and referenced to the holding current. Compounds were then incubated for 6-7 minutes prior to a second measurement of the hERG signal using an identical pulse train. Eight-point concentration curves were generated using serial 3-fold dilutions from the maximum final assay concentration (3 μM).

[13] = system: PBMC cells; assay: Cell mitosis assay; assay type: cell-based; conditions: Homo sapiens, read-out: % Inhibition of mitosis in PBMC cells at 5 μg/mL
Outline: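 Healthy-donor PBMCs (3 million cells per sample) stimulated with 2% PHA for 48 hr, then exposed 20 hr to varying compound concentrations. Demecolcine (0.1 μg/mL) added 2 hr before collection to arrest cells in metaphase; read by flow cytometry gated on lymphocytes.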

[14] = system: IL-8 release, HT29 cells; assay: IL-1β-induced IL-8 release in HT29 cells; assay type: cell-based; conditions: Homo sapiens, HT-29; IL-1β stimulated; read-out: IC50 Values for Inhibition of Cytokine Release, HT29 cells, IL-8
Description: (d) IL-1β-Induced IL-8 Release in HT29 Cells
HT29 cells, a human colon adenocarcinoma cell line, are plated in a 96 well plate (24 hrs) and pre-treated with compounds at the desired concentration for 2 hours before addition of 5 ng/ml of IL-1β (Abeam) for 24 hours, Supernatants are harvested for IL-8 quantification by Sandwich ELISA (Duo-set, R&D System). The IC50 is determined from the dose response curve.

[15] = system: IL-8 release, PBMCs; assay: LPS-induced IL-8 release in PBMC cells; assay type: cell-based; conditions: Homo sapiens, LPS stimulated, read-out: IC50 Values for Inhibition of Cytokine Release, PBMCs, IL-8
Outline: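 PBMCs from healthy donors pretreated with compound for 2 h, then stimulated with 1 ng/ml LPS (E. coli 0111:B4) for 24 h at 37 °C, 5% CO2. Supernatant IL-8 and TNFα measured by sandwich ELISA with fluorescence read-out.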

[16] = system: mice; assay: Mouse cigarette (tobacco) smoke model; assay type: in vivo; conditions: 1.75 μg/mouse (35 μL, bid, i.n.)
Source text: The result of treatment with compound Example (8) on macrophage and neutrophil accumulation in BALF in the mouse cigarette smoke model was investigated (Table 5).

[17] = Table 4c1, read-out: LPS Induced Release of Cytokine in d-U937 Cells, IL-8 IC50
[18] = Table 4c2, different laboratory, read-out: IC50 Values for Inhibition of Cytokine Release, dU937 cells, IL-8
[19] = Table 4a2, different laboratory

cSrc, sequence (P12931 whole entry): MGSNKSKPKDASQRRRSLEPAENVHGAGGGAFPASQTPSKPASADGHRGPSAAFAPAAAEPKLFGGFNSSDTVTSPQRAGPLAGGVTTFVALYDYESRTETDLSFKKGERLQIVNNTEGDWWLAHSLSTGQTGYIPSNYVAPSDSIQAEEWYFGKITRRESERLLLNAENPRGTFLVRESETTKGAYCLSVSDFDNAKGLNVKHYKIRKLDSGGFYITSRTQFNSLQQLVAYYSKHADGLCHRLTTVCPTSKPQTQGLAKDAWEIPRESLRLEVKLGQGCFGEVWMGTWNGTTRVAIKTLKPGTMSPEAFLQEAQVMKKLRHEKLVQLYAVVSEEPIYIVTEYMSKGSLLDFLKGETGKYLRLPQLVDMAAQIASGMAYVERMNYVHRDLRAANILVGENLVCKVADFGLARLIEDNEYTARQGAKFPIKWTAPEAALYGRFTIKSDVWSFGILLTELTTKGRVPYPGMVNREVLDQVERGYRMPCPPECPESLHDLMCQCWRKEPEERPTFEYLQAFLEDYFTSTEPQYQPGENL
T1 sequence (P49840 whole entry): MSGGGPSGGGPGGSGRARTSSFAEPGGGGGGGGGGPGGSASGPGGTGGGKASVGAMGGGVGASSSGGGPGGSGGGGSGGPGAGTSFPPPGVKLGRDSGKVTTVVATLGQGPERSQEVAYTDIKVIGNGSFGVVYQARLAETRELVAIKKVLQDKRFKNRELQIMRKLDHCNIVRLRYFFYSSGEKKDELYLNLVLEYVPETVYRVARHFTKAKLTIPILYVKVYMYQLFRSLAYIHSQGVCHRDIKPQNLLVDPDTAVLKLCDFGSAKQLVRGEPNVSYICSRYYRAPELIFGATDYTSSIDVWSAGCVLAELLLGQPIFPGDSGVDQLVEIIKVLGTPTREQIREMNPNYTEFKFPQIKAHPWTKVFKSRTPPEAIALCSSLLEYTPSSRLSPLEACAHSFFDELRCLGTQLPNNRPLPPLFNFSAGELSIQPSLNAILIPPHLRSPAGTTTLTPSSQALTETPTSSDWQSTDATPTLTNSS
T2 sequence (Q12809 whole entry): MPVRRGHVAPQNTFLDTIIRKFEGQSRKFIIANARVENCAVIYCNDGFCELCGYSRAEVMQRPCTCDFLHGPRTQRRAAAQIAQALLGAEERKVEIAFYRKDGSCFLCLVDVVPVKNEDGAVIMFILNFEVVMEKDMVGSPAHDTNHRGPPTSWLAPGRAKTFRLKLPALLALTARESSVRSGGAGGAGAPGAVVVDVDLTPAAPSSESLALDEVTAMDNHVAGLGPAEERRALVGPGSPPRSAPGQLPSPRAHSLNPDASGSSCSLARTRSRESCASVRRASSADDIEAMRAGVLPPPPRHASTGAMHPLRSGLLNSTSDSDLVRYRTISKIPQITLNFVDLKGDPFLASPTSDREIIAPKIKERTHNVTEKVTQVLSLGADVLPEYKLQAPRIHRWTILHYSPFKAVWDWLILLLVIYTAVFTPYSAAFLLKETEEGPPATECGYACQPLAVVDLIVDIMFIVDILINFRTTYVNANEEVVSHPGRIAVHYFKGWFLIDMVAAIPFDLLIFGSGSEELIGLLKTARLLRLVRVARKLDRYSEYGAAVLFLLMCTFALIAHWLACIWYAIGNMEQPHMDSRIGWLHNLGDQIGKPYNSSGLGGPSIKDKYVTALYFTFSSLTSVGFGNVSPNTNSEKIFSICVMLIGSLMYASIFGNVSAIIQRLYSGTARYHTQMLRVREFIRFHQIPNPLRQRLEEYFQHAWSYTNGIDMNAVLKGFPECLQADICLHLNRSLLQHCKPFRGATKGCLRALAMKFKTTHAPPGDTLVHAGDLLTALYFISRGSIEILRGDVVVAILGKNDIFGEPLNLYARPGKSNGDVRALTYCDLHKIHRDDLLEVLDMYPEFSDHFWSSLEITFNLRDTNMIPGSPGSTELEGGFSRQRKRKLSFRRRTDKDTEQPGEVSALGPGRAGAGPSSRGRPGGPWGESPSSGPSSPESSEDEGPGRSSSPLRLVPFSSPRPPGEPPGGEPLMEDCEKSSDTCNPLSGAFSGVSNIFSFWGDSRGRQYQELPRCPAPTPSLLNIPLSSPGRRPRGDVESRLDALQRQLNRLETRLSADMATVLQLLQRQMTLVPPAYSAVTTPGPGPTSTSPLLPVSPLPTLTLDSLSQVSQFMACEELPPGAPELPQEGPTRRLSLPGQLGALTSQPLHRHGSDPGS
p38 MAPKα isoform (MAPK14), sequence (Q16539 whole entry, canonical isoform): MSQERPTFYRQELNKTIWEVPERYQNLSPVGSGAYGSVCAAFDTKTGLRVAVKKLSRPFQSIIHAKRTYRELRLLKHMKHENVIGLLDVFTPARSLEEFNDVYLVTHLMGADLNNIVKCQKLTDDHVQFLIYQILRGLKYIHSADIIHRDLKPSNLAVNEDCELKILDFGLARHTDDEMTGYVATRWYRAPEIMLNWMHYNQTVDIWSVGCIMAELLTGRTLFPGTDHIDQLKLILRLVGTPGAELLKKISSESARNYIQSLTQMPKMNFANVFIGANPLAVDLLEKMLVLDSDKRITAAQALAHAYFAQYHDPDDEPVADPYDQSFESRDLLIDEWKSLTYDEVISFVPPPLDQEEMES

IC50 [10]	IC50 [2, 18]	IC50 [5, 19]	IC50 [7]	IC50 [8, 19]	IC50 [14]	SMILES	Cell viability at time point in d-U937 cells, 4 h [1]	Cell viability at time point in d-U937 cells, 24 h [1]	IC50 [2, 17]	IC50 [3]	IC50 [4]	IC50 ([5]; Table 4a1)	IC50 [6]	EC50 [7]	IC50 ([8]; Table 4a1)	IC50 [9]	IC50 [11]	IC50 [12]	inhibition at 5 µg/mL [13]	IC50 [15]	other results
						COc1ccc(Nc2nccc(Oc3ccc(NC(=O)Nc4cc(C(C)(C)C)nn4-c4ccc(C)cc4)c4ccccc34)n2)cc1C(=O)NCCN1CCOCC1 [Example 13, 5-((4-((4-(3-(3-(tert-Butyl)-1-(p-tolyl)-1H-pyrazol-5-yl)ureido)naphthalen-1-yl)oxy)pyrimidin-2-yl)amino)-2-methoxy-N-(2-morpholinoethyl)benzamide]	−ve (−ve and +ve indicate that the value is below and above respectively, the no significant effect threshold, defined as 30% inhibition at 1 μg/mL at the time point indicated)	−ve (−ve and +ve indicate that the value is below and above respectively, the no significant effect threshold, defined as 30% inhibition at 1 μg/mL at the time point indicated)	0.3 nM	24 nM	672 nM	16 nM	1.7 nM	0.4 nM	2 nM						
						COc1ccc(C(=O)NCCN(C)C)cc1Nc1nccc(Oc2ccc(NC(=O)Nc3cc(C(C)(C)C)nn3-c3ccc(C)cc3)c3ccccc23)n1 [Example 29, 3-((4-((4-(3-(3-(tert-butyl)-1-(p-tolyl)-1H-pyrazol-5-yl)ureido)naphthalen-1-yl)oxy)pyrimidin-2-yl)amino)-N-(2-(dimethylamino)ethyl)-4-methoxybenzamide]	−ve (−ve and +ve indicate that the value is below and above respectively, the no significant effect threshold, defined as 30% inhibition at 1 μg/mL at the time point indicated)	−ve (−ve and +ve indicate that the value is below and above respectively, the no significant effect threshold, defined as 30% inhibition at 1 μg/mL at the time point indicated)	13.7 nM	< 1 nM	3210 nM	147 nM	15.1 nM	3.8 nM	< 1 nM						
1370 nM	0.3 nM	28 nM	0.4 nM	11 nM	1.3 nM	C#Cc1cc(Nc2nccc(Oc3ccc(NC(=O)Nc4cc(C(C)(C)C)nn4-c4ccc(C)cc4)c4ccccc34)n2)cc(C(=O)NCCN2CCOCC2)c1 [Example 75, 3-((4-((4-(3-(3-(tert-Butyl)-1-(p-tolyl)-1H-pyrazol-5-yl)ureido)naphthalen-1-yl)oxy)pyrimidin-2-yl)amino)-5-ethynyl-N-(2-morpholinoethyl)benzamide]										76.9 nM	3 nM	> 3000 nM	2.8%	1 nM	
10400 nM	1.5 nM	61 nM	1.4 nM	21 nM	7.4 nM	C#Cc1cc(Nc2nccc(Oc3ccc(NC(=O)Nc4cc(C(C)(C)C)nn4-c4ccc(C)cc4)c4ccccc34)n2)cc(C(=O)N[C@@H](C)CN2CCOCC2)c1 [Example 81, (S)-3-((4-((4-(3-(3-(tert-Butyl)-1-(p-tolyl)-1H-pyrazol-5-yl)ureido)naphthalen-1-yl)oxy)pyrimidin-2-yl)amino)-5-ethynyl-N-(1-morpholinopropan-2-yl)benzamide]										112 nM	1.8 nM	> 3000 nM	-2.6%	3.2 nM	
						CCC(=O)O[C@]1(C(=O)SCF)[C@H](C)C[C@H]2[C@@H]3C[C@H](F)C4=CC(=O)C=C[C@]4(C)[C@@]3(F)[C@@H](O)C[C@@]21C [fluticasone propionate]															neutrophil or macrophage accumulation into airways [16]: did not inhibit
